From PubChem BioAssay (NCI)
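The compound was tested at five concentrations on cells cultured in 96-well plates, with a 48-hour exposure period. TGI: total growth inhibition.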

Key:
Assay in all cases: growth of human tumour cells (NCI), 48 h
[1] = system: 786-0 renal
[2] = system: A498 renal
[3] = system: A549 NSCLC
[4] = system: ACHN renal
[5] = system: BT-549 breast
[6] = system: CAKI-1 renal
[7] = system: CCRF-CEM leukemia
[8] = system: COLO 205 colon
[9] = system: DU-145 prostate
[10] = system: EKVX NSCLC
[11] = system: HCC-2998 colon
[12] = system: HCT-116 colon
[13] = system: HCT-15 colon
[14] = system: HL-60(TB) leukemia
[15] = system: HOP-62 NSCLC
[16] = system: HOP-92 NSCLC
[17] = system: HS 578T breast
[18] = system: HT29 colon
[19] = system: IGROV1 ovarian
[20] = system: K-562 leukemia
[21] = system: KM12 colon
[22] = system: LOX IMVI melanoma
[23] = system: M14 melanoma
[24] = system: MALME-3M melanoma
[25] = system: MCF7 breast
[26] = system: MDA-MB-231 breast
[27] = system: MDA-MB-435
[28] = system: MDA-N
[29] = system: MOLT-4 leukemia
[30] = system: NCI-H226 lung
[31] = system: NCI-H23 lung
[32] = system: NCI-H460 lung
[33] = system: NCI-H522 lung
[34] = system: NCI/ADR-RES ovarian
[35] = system: OVCAR-4 ovarian
[36] = system: OVCAR-5 ovarian
[37] = system: OVCAR-8 ovarian
[38] = system: PC-3 prostate
[39] = system: RPMI-8226 leukemia
[40] = system: RXF 393 renal
[41] = system: SF-268 CNS
[42] = system: SF-295 CNS
[43] = system: SK-MEL-2 melanoma
[44] = system: SK-MEL-28 melanoma
[45] = system: SK-MEL-5 melanoma
[46] = system: SK-OV-3 ovarian
[47] = system: SN12C renal
[48] = system: SNB-19 CNS
[49] = system: SR leukemia
[50] = system: SW-620 colon
[51] = system: T-47D breast
[52] = system: TK-10 renal
[53] = system: U251 CNS
[54] = system: UACC-257 melanoma
[55] = system: UACC-62 melanoma
[56] = system: UO-31 renal
[57] = system: DMS 114 small cell lung
[58] = system: DMS 273 small cell lung
[59] = system: KM20L2 colon
[60] = system: LXFL 529 NSCLC
[61] = system: M19-MEL melanoma
[62] = system: SF-539 CNS
[63] = system: SNB-75 CNS
[64] = system: XF 498 CNS

SMILES: Cc1nnc(N)nc1/C=C\c1ccc(Cl)cc1Cl
- TGI [1]: > 100 µM
- TGI [2]: > 100 µM
- TGI [3]: > 100 µM
- TGI [4]: > 100 µM
- TGI [5]: > 100 µM
- TGI [6]: > 100 µM
- TGI [7]: 86.4 µM
- TGI [8]: 55.8 µM
- TGI [9]: > 100 µM
- TGI [10]: > 100 µM
- TGI [11]: 42.8 µM
- TGI [12]: 63.1 µM
- TGI [13]: > 100 µM
- TGI [14]: 53 µM
- TGI [15]: 36.3 µM
- TGI [16]: > 100 µM
- TGI [17]: 99.2 µM
- TGI [18]: 41.7 µM
- TGI [19]: 39.4 µM
- TGI [20]: > 100 µM
- TGI [21]: 32.6 µM
- TGI [22]: > 100 µM
- TGI [23]: 85.3 µM
- TGI [24]: 59.3 µM
- TGI [25]: > 100 µM
- TGI [26]: > 100 µM
- TGI [27]: > 100 µM
- TGI [28]: > 100 µM
- TGI [29]: > 100 µM
- TGI [30]: 46.2 µM
- TGI [31]: > 100 µM
- TGI [32]: 42.8 µM
- TGI [33]: 57.5 µM
- TGI [34]: > 100 µM
- TGI [35]: > 100 µM
- TGI [36]: > 100 µM
- TGI [37]: > 100 µM
- TGI [38]: > 100 µM
- TGI [39]: > 100 µM
- TGI [40]: > 100 µM
- TGI [41]: > 100 µM
- TGI [42]: 53.8 µM
- TGI [43]: 32.6 µM
- TGI [44]: > 100 µM
- TGI [45]: 81.5 µM
- TGI [46]: > 100 µM
- TGI [47]: > 100 µM
- TGI [48]: > 100 µM
- TGI [49]: > 100 µM
- TGI [50]: 51.3 µM
- TGI [51]: > 100 µM
- TGI [52]: > 100 µM
- TGI [53]: > 100 µM
- TGI [54]: > 100000 nM
- TGI [55]: > 100 µM
- TGI [56]: > 100 µM

SMILES: CCCCCCCCCCNCCSSCc1ccc(Cl)cc1
- TGI [1]: 24.2 µM
- TGI [2]: 28.4 µM
- TGI [3]: 3.59 µM
- TGI [4]: 18.5 µM
- TGI [6]: 7.15 µM
- TGI [7]: 4.87 µM
- TGI [8]: 5.95 µM
- TGI [57]: 3.23 µM
- TGI [58]: 2990 nM
- TGI [10]: 5.14 µM
- TGI [12]: 3.14 µM
- TGI [13]: 6.54 µM
- TGI [18]: 3.74 µM
- TGI [19]: 7.62 µM
- TGI [20]: 5.27 µM
- TGI [59]: 3.07 µM
- TGI [60]: 2900 nM
- TGI [23]: 1.17 µM
- TGI [61]: 3.58 µM
- TGI [24]: 7.69 µM
- TGI [29]: 3.08 µM
- TGI [33]: 3.18 µM
- TGI [35]: 3.09 µM
- TGI [36]: 3.72 µM
- TGI [37]: 3.8 µM
- TGI [40]: 11.6 µM
- TGI [42]: 4.79 µM
- TGI [62]: 3.64 µM
- TGI [45]: 1.88 µM
- TGI [46]: 8.22 µM
- TGI [47]: 3.86 µM
- TGI [63]: 20.6 µM
- TGI [50]: 3.02 µM
- TGI [52]: 4.04 µM
- TGI [53]: 10.2 µM
- TGI [54]: 2310 nM
- TGI [56]: 4.84 µM
- TGI [64]: 5.22 µM
